Experimental findings from patent publication US8426447B2, “Spiro-tricyclic ring compounds as beta-secretase modulators and methods of use” (Amgen Inc., priority 2008, dated 2013) are described below.

Assay [1] addresses T1, BACE1 (Homo sapiens, UniProt P56817). As to the kind of experiment: In Vitro Enzymatic BACE FRET (Fluorescence Resonance Energy Transfer) Assay. The class given is biochemical. The method, boiled down:
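Fluorescence read-out after Tris addition raises pH to neutrality and ends the reaction. Before that, a peptide substrate carrying fluorophore and quencher across the BACE cleavage site (50 nM) is incubated with enzyme for one hour at pH 4.2 in acetate containing 10% DMSO and sub-micellar genapol.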

Assay [2] deals with T1, BACE1. The experiment in a line: In Vitro BACE Cell-based Assay (HEK cell assay): Aβ40 in conditioned medium of cells stably expressing Amyloid Precursor Protein, sandwich ELISA. Summed up:
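First, APP-stable cells grow 24 h at 37° C., 5% CO2. Next, test compounds are added for 24 h (10 doses, 0.1% DMSO). Finally, medium Aβ40 is determined by pAb40/6E10 sandwich ELISA with Europium TRF, and IC50 is calculated.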
For orientation: ELISA stands for enzyme-linked immunosorbent assay.

Assay [3] concerns amyloid beta peptide (A-beta) in cerebrospinal fluid and brain. As to the kind of experiment: In Vivo Inhibition of Beta-Secretase: reduction of A-beta levels in CSF and brain. Conditions: after 4 hrs, mouse or rat.
Excerpt: Several animal models, including mouse, rat, dog, and monkey, may be used to screen for inhibition of beta-secretase activity in vivo following administration of a test compound sample. Animals used in this invention can be wild type, transgenic, or gene knockout animals. […] A separate group of animals receive 2% hydroxypropyl methylcellulose, 1% Tween80 alone, containing no test compound, and serve as a vehicle-control group. At the end of the test period, animals are sacrificed and brain tissues, plasma or cerebrospinal fluid are collected. […] Homogenates are centrifuged at 355,000 g, 4° C. for 30 minutes. CSF or brain supernatants are then analyzed for the presence of A-beta peptide by specific sandwich ELISA assays based on ECL (Electrochemiluminescence) technology. For example, rat Abeta40 is measured using biotinylated-4G8 (Signet) as a capture antibody and Fab40 (an in-house antibody specific to the C-terminal of Abeta40) as a detection antibody.
Setting [4] is: Table IV, class symbols, read-out: BACE1 FRET assay.
Where [5] appears, read: Table IV, class symbols, read-out: HEK cell assay.
Where [6] appears, read: HEK cells, read-out: HEK cell assay.

T1 sequence (P56817 46-501, species assumed): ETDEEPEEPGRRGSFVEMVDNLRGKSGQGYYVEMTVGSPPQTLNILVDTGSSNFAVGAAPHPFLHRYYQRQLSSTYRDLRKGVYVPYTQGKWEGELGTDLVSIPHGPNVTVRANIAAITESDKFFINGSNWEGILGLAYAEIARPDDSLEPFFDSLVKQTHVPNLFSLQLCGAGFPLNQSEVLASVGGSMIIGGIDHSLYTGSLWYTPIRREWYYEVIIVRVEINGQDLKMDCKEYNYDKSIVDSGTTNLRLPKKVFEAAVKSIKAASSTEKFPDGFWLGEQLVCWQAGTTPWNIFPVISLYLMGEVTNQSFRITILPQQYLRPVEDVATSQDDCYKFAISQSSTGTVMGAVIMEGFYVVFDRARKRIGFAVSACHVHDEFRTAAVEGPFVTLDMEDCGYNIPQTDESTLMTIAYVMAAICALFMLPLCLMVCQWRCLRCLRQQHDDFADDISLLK

As to `CC1(C)C=C(c2ccc3c(c2)[C@]2(COC(N)=N2)c2cc(-c4cncnc4)ccc2O3)CCO1` [Example 689, (4R)-2′-(6,6-dimethyl-3,6-dihydro-2H-pyran-4-yl)-7′-(5-pyrimidinyl)spiro[1,3-oxazole-4,9′-xanthen]-2-amine], the IC50 at BACE1 [1] (read-out: BACE1 FRET assay) is less than 0.1 µM. The IC50 on BACE1 [2] (read-out: HEK cell assay) was less than 0.1 µM. Besides, in assay [3] (30 mpk), the “percent reduction in CSF A-beta levels” value is 69% and the “percent reduction in brain A-beta levels” value worked out at 41%.

Regarding `Cc1cc(-c2ccc3c(c2)[C@]2(COC(N)=N2)c2cc(-c4cccnc4F)ccc2O3)on1` [Example 563, (4S)-2′-(2-fluoro-3-pyridinyl)-7′-(3-methyl-5-isoxazolyl)spiro[1,3-oxazole-4,9′-xanthen]-2-amine], the IC50 at BACE1 [1] (setting [4]) was less than 0.1 µM. Besides, the IC50 on BACE1 [2] (setting [5]) was less than 0.1 µM. In assay [3] (10 mpk), the “percent reduction in CSF A-beta levels” value was 54% and the “percent reduction in brain A-beta levels” value was 41%.

Take `NC1=N[C@@]2(CO1)c1cc(-c3cccnc3F)ccc1Oc1cnc(-c3cccnc3)cc12` [Example 517, (5S)-7-(2-fluoro-3-pyridinyl)-3-(3-pyridinyl)spiro[chromeno[2,3-c]pyridine-5,4′-[1,3]oxazol]-2′-amine]: the IC50 at BACE1 [1] (BACE1 FRET assay (uM)) was less than 0.1 µM. This molecule also returned an IC50 against BACE1 [2] (HEK cell assay (uM), HEK cells) of less than 0.1 µM. In addition, in assay [3] (10 mpk), the “percent reduction in CSF A-beta levels” value is reported as 56% and the “percent reduction in brain A-beta levels” value was 36%.

`CC(C)(C#N)COc1cc(F)c2c(c1)[C@]1(COC(N)=N1)c1cc(-c3cccnc3F)ccc1O2` [Example 287, (S)-3-(2-amino-5′-fluoro-2′-(2-fluoropyridin-3-yl)-5H-spiro[oxazole-4,9′-xanthene]-7′-yloxy)-2,2-dimethylpropanenitrile]: the IC50 on BACE1 [1] (read-out: BACE1 FRET assay) was less than 0.1 µM. Further, the IC50 on BACE1 [2] (setting [6]) was less than 0.1 µM. Besides, in assay [3] (10 mpk), the “percent reduction in CSF A-beta levels” value is 48% and the “percent reduction in brain A-beta levels” value is on record as 32%.

Take `NC1=N[C@@]2(CO1)c1cc(-c3cc(Cl)ccc3F)ccc1Oc1ncc(C3=CCOCC3)cc12` [Example 296, (S)-7-(5-chloro-2-fluorophenyl)-3-(3,6-dihydro-2H-pyran-4-yl)-5′H-spiro[chromeno[2,3-b]pyridine-5,4′-oxazol]-2′-amine]: the IC50 on BACE1 [1] (setting [4]) and on BACE1 [2] (setting [5]) was less than 0.1 µM each time. The “percent reduction in CSF A-beta levels” value in assay [3] (10 mpk) is listed as 61%. Further, the “percent reduction in brain A-beta levels” value in assay [3] (10 mpk) came out at 40%.

With `Cc1cnc(F)c(-c2ccc3c(c2)[C@@]2(COC(N)=N2)c2cc(C4=CCOCC4)ncc2O3)c1` [Example 286, (S)-3-(3,6-dihydro-2H-pyran-4-yl)-7-(2-fluoro-5-methylpyridin-3-yl)-5′H-spiro[chromeno[2,3-c]pyridine-5,4′-oxazol]-2′-amine], the IC50 at BACE1 [1] (read-out: BACE1 FRET assay) was less than 0.1 µM. For the same molecule, the IC50 at BACE1 [2] (setting [6]) is less than 0.1 µM. In assay [3] (10 mpk), the “percent reduction in CSF A-beta levels” value was 73% and the “percent reduction in brain A-beta levels” value worked out at 57%.

As to `C[C@@H]1CN(c2ccc3c(c2)[C@]2(COC(N)=N2)c2cc(-c4cccnc4)ccc2O3)C[C@H](C)O1` [Example 662, (4S)-2′-((2R,6S)-2,6-dimethyl-4-morpholinyl)-7′-(3-pyridinyl)spiro[1,3-oxazole-4,9′-xanthen]-2-amine], the IC50 at BACE1 [1] (setting [4]) is less than 0.1 µM. Also, the IC50 on BACE1 [2] (setting [5]) was less than 0.1 µM. Moreover, in assay [3] (30 mpk), the “percent reduction in CSF A-beta levels” value came out at 53% and the “percent reduction in brain A-beta levels” value worked out at 34%.

As for `CC1(C)CN(c2ccc3c(c2)[C@]2(COC(N)=N2)c2cc(-c4cccnc4F)ccc2O3)CCO1` [Example 290, (S)-2′-(2,2-dimethylmorpholino)-7′-(2-fluoropyridin-3-yl)-5H-spiro[oxazole-4,9′-xanthen]-2-amine], the IC50 on BACE1 [1] (read-out: BACE1 FRET assay) is less than 0.1 µM. In addition, the IC50 on BACE1 [2] (setting [6]) is less than 0.1 µM. For the same molecule, in assay [3] (10 mpk), the “percent reduction in CSF A-beta levels” value came to 63% and the “percent reduction in brain A-beta levels” value is listed as 33%.

In the case of `NC1=N[C@]2(CO1)c1cc(OCC(F)(F)F)ccc1Oc1ccc(-c3cncnc3)cc12` [Example 58, (4S)-2′-(5-pyrimidinyl)-7′-(2,2,2-trifluoroethoxy)spiro[1,3-oxazole-4,9′-xanthen]-2-amine], on BACE1 [1] (Table II, read-out: BACE1 FRET assay), the IC50 was less than 0.1 µM. In addition, the IC50 at BACE1 [2] (Table II, Aβ40, 24 h incubation, read-out: HEK cell assay) was in the range of 0.1 to 1 µM. Moreover, in assay [3] (10 mpk), the “percent reduction in CSF A-beta levels” value is given as 45% and the “percent reduction in brain A-beta levels” value is 29%.

For `NC1=N[C@@]2(CO1)c1cc(-c3cncnc3)ccc1Oc1cc(F)c(C3=CCOCC3)cc12` [Example 292, (S)-2′-(3,6-dihydro-2H-pyran-4-yl)-3′-fluoro-7′-(pyrimidin-5-yl)-5H-spiro[oxazole-4,9′-xanthen]-2-amine], the IC50 on BACE1 [1] (setting [4]) is less than 0.1 µM. Besides, on BACE1 [2] (setting [5]), the IC50 was less than 0.1 µM. Besides, in assay [3] (10 mpk), the “percent reduction in CSF A-beta levels” value was found to be 57% and the “percent reduction in brain A-beta levels” value was 29%.

Consider `COC(C)(C)C#Cc1cnc2c(c1)[C@]1(COC(N)=N1)c1cc(-c3cnccn3)ccc1O2` [Example 586, (5S)-3-(3-methoxy-3-methyl-1-butyn-1-yl)-7-(2-pyrazinyl)spiro[chromeno[2,3-b]pyridine-5,4′-[1,3]oxazol]-2′-amine], for which the IC50 on BACE1 [1] (setting [4]) and on BACE1 [2] (setting [5]) was less than 0.1 µM in each case. Moreover, the “percent reduction in CSF A-beta levels” value in assay [3] (10 mpk) is recorded as 32%. The “percent reduction in brain A-beta levels” value in assay [3] (10 mpk) was 11%.

Turning to `CC(C)(C)C#Cc1cnc2c(c1)[C@]1(COC(N)=N1)c1cc(-c3cncnc3)ccc1O2` [Example 299, (S)-3-(3,3-dimethylbut-1-ynyl)-7-(pyrimidin-5-yl)-5′H-spiro[chromeno[2,3-b]pyridine-5,4′-oxazol]-2′-amine], the IC50 on BACE1 [1] (read-out: BACE1 FRET assay) was less than 0.1 µM. Also, the IC50 at BACE1 [2] (read-out: HEK cell assay) was less than 0.1 µM. Moreover, in assay [3] (30 mpk), the “percent reduction in CSF A-beta levels” value came to 84% and the “percent reduction in brain A-beta levels” value worked out at 81%.

Turning to `CC(C)(C)/C=C/c1cc2c(cn1)Oc1ccc(-c3cncnc3)cc1[C@@]21COC(N)=N1` [Example 291, (S,E)-3-(3,3-dimethylbut-1-enyl)-7-(pyrimidin-5-yl)-5′H-spiro[chromeno[2,3-c]pyridine-5,4′-oxazol]-2′-amine], the IC50 at BACE1 [1] (read-out: BACE1 FRET assay) was less than 0.1 µM. The IC50 at BACE1 [2] (setting [6]) is less than 0.1 µM. Besides, in assay [3] (10 mpk), the “percent reduction in CSF A-beta levels” value is recorded as 62% and the “percent reduction in brain A-beta levels” value was 32%.

Take `CC1(C)CN(c2ccc3c(c2)[C@]2(COC(N)=N2)c2cc(-c4cccnc4)ccc2O3)CCO1` [Example 663, (4S)-2′-(2,2-dimethyl-4-morpholinyl)-7′-(3-pyridinyl)spiro[1,3-oxazole-4,9′-xanthen]-2-amine]: the IC50 on BACE1 [1] (setting [4]) is less than 0.1 µM. On BACE1 [2] (setting [5]), the IC50 was less than 0.1 µM. In assay [3] (30 mpk), the “percent reduction in CSF A-beta levels” value was determined as 57% and the “percent reduction in brain A-beta levels” value turned out to be 44%.

For the molecule `CC(C)(C)COc1ccc2c(c1)[C@@]1(COC(N)=N1)c1cc(-c3ccncc3)cnc1O2` [Example 808, (5S)-7-(2,2-dimethylpropoxy)-3-(4-pyridinyl)spiro[chromeno[2,3-b]pyridine-5,4′-[1,3]oxazol]-2′-amine], the IC50 at BACE1 [1] (setting [4]) is less than 0.1 µM. Also, the IC50 on BACE1 [2] (setting [5]) was less than 0.1 µM. Moreover, in assay [3] (30 mpk), the “percent reduction in CSF A-beta levels” value was 55% and the “percent reduction in brain A-beta levels” value came out at 43%.
